Experimental data reported in patent publication US20240228504A1, “SUBSTITUTED TRICYCLIC AMIDES, ANALOGUES THEREOF, AND METHODS USING SAME” (Arbutus Biopharma Corporation, priority 2020, published 2024).
Like-named read-outs stand apart in the source and are kept apart here.

Tested on: HBV rcDNA in HepDE19 cells
Test: HepDE19 assay with bDNA quantitation of HBV rcDNA
Type: cell-based, hepatitis B virus
Settings: inhibition of rcDNA formation, bDNA quantitation, read-out: DE-19bDNA EC50
[1] = Hepatitis B virus, HepDE19, HepDE19 assay

SMILES	EC50 [1] [nM]	EC50 (HepDE19 assay) [nM]
CN(C(=O)c1ccc(F)c(C(F)F)c1)[C@@H]1COCc2[nH]c(=O)c3cc(F)c(F)cc3c21 [Compound 109, (S)-N-(8,9-Difluoro-6-oxo-1,4,5,6-tetrahydro-2H-pyrano[3,4-c]isoquinolin-1-yl)-3-(difluoromethyl)-4-fluoro-N-methylbenzamide]	20	–
CN(C(=O)c1ccc2scnc2c1)C1COCc2[nH]c(=O)c3cc(F)ccc3c21 (single isomer, unassigned) [Compound 444, N-(8-fluoro-6-oxo-1,4,5,6-tetrahydro-2H-pyrano[3,4-c]isoquinolin-1-yl)-N-methylbenzo[d]thiazole-5-carboxamide]	–	12200
CN(C(=O)[C@@H]1Cc2ccccc2N1)C1COCc2[nH]c(=O)c3cc(F)ccc3c21 (single isomer, unassigned) [Compound 4]	130	–
CN(C(=O)c1cc2cc(F)cnc2[nH]1)[C@@H]1COCc2[nH]c(=O)c3cc(F)c(F)cc3c21 [Compound 190, (S)-N-(8,9-Difluoro-6-oxo-1,4,5,6-tetrahydro-2H-pyrano[3,4-c]isoquinolin-1-yl)-5-fluoro-N-methyl-1H-pyrrolo[2,3-b]pyridine-2-carboxamide]	330	–
CN(C(=O)c1cc2ccccn2c1)C1COCc2[nH]c(=O)c3cc(F)c(F)cc3c21 (single isomer, unassigned) [Compound 12, N-(8,9-Difluoro-6-oxo-1,4,5,6-tetrahydro-2H-pyrano[3,4-c]isoquinolin-1-yl)-N-methylindolizine-2-carboxamide]	–	10
CN(C(=O)c1ccnc(F)c1)[C@@H]1COCc2[nH]c(=O)c3cc(F)c(F)cc3c21 [Compound 85, (S)-N-(8,9-Difluoro-6-oxo-1,4,5,6-tetrahydro-2H-pyrano[3,4-c]isoquinolin-1-yl)-2-fluoro-N-methylisonicotinamide]	630	–
Cc1cc(F)cc2[nH]c(C(=O)N(C)[C@@H]3CCCc4[nH]c(=O)c5cc(F)c(F)cc5c43)cc12 [Compound 485, (R)-N-(8,9-difluoro-6-oxo-1,2,3,4,5,6-hexahydrophenanthridin-1-yl)-6-fluoro-N,4-dimethyl-1H-indole-2-carboxamide]	10	–
CN(C(=O)c1cc2ccc(F)cc2[nH]1)C1COCc2[nH]c(=O)c3cc(F)ccc3c21 (single isomer, unassigned) [Compound 31, 6-Fluoro-N-(8-fluoro-6-oxo-1,4,5,6-tetrahydro-2H-pyrano[3,4-c]isoquinolin-1-yl)-N-methyl-1H-indole-2-carboxamide]	–	1200
CN(C(=O)c1cc2c(C(F)F)cccc2[nH]1)C1CNCc2[nH]c(=O)c3cc(F)ccc3c21 (single isomer, unassigned) [Compound 210, N-(8-Fluoro-6-oxo-1,2,3,4,5,6-hexahydrobenzo[c][1,7]naphthyridin-1-yl)-4-(difluoromethyl)-N-methyl-1H-indole-2-carboxamide]	–	40
CN(C(=O)c1cc2cc(F)c(F)cc2[nH]1)[C@@H]1COCc2[nH]c(=O)c3cc(F)c(F)cc3c21 [Compound 42, (S)-N-(8,9-difluoro-6-oxo-1,4,5,6-tetrahydro-2H-pyrano[3,4-c]isoquinolin-1-yl)-5,6-difluoro-N-methyl-1H-indole-2-carboxamide]	5	–
CN(C(=O)c1cc2cccc(F)c2[nH]1)C1COCc2[nH]c(=O)c3cc(F)ccc3c21 (single isomer, unassigned) [Compound 33, 7-Fluoro-N-(8-fluoro-6-oxo-1,4,5,6-tetrahydro-2H-pyrano[3,4-c]isoquinolin-1-yl)-N-methyl-1H-indole-2-carboxamide]	–	1800
CN(C(=O)c1ccnc(C(F)F)c1)[C@@H]1COCc2[nH]c(=O)c3cc(F)c(F)cc3c21 [Compound 313, (S)-N-(8,9-Difluoro-6-oxo-1,4,5,6-tetrahydro-2H-pyrano[3,4-c]isoquinolin-1-yl)-2-(difluoromethyl)-N-methylisonicotinamide]	170	–
CN(C(=O)c1cc2ccc(F)cc2[nH]1)C1CNCc2[nH]c(=O)c3cc(F)c(F)cc3c21 (single isomer, unassigned) [Compound 108, N-(8,9-Difluoro-6-oxo-1,2,3,4,5,6-hexahydrobenzo[c][1,7]naphthyridin-1-yl)-6-fluoro-N-methyl-1H-indole-2-carboxamide]	–	1600
CN(C(=O)c1c[nH]c(=O)c(F)c1)[C@@H]1COCc2[nH]c(=O)c3cc(F)c(F)cc3c21 [Compound 226, (S)-N-(8,9-Difluoro-6-oxo-1,4,5,6-tetrahydro-2H-pyrano[3,4-c]isoquinolin-1-yl)-5-fluoro-N-methyl-6-oxo-1,6-dihydropyridine-3-carboxamide]	12500	–
CN(C(=O)c1cc(F)c(Cl)c(F)c1)C1CNCc2[nH]c(=O)c3cc(F)c(F)cc3c21 (single isomer, unassigned) [Compound 168, 4-Chloro-N-(8,9-difluoro-6-oxo-1,2,3,4,5,6-hexahydrobenzo[c][1,7]naphthyridin-1-yl)-3,5-difluoro-N-methylbenzamide]	–	11300
CN(C(=O)C1Cc2cc(F)ccc2N1)C1COCc2[nH]c(=O)c3cc(F)c(F)cc3c21 (single isomer, unassigned) [Compound 6, N-(8,9-Difluoro-6-oxo-1,4,5,6-tetrahydro-2H-pyrano[3,4-c]isoquinolin-1-yl)-5-fluoro-N-methylindoline-2-carboxamide]	–	9600
CN(C(=O)c1c(F)cc(Br)cc1F)[C@@H]1COCc2[nH]c(=O)c3cc(F)c(F)cc3c21 [Compound 246, (S)-4-Bromo-N-(8,9-difluoro-6-oxo-1,4,5,6-tetrahydro-2H-pyrano[3,4-c]isoquinolin-1-yl)-2,6-difluoro-N-methylbenzamide]	1960	–
CN(C(=O)c1ccc2ncoc2c1)[C@@H]1COCc2[nH]c(=O)c3cc(F)c(F)cc3c21 [Compound 409, (S)-N-(8,9-Difluoro-6-oxo-1,4,5,6-tetrahydro-2H-pyrano[3,4-c]isoquinolin-1-yl)-N-methylbenzo[d]oxazole-6-carboxamide]	2300	–
CN(C(=O)c1cnn(C(F)(F)F)c1)[C@@H]1COCc2[nH]c(=O)c3cc(F)c(F)cc3c21 [Compound 197, (S)-N-(8,9-Difluoro-6-oxo-1,4,5,6-tetrahydro-2H-pyrano[3,4-c]isoquinolin-1-yl)-N-methyl-1-(trifluoromethyl)-1H-pyrazole-4-carboxamide]	440	–
CN(C(=O)c1ccc2nc[nH]c2c1)[C@@H]1COCc2[nH]c(=O)c3cc(F)c(F)cc3c21 [Compound 451, (S)-N-(8,9-difluoro-6-oxo-1,4,5,6-tetrahydro-2H-pyrano[3,4-c]isoquinolin-1-yl)-N-methyl-1H-benzo[d]imidazole-6-carboxamide]	12300	–
CN(C(=O)c1cc(F)c(Cl)c(F)c1)C1COCc2[nH]c(=O)c3cc(F)ccc3c21 (single isomer, unassigned) [Compound 175, 4-Chloro-3,5-difluoro-N-(8-fluoro-6-oxo-2,4,5,6-tetrahydro-1H-pyrano[3,4-c]isoquinolin-1-yl)-N-methylbenzamide]	–	30
CN(C(=O)c1cc2cc(F)ccc2[nH]1)[C@@H]1CCCc2[nH]c(=O)c3cc(F)c(F)cc3c21 [Compound 480, (R)-N-(8,9-difluoro-6-oxo-1,2,3,4,5,6-hexahydrophenanthridin-1-yl)-5-fluoro-N-methyl-1H-indole-2-carboxamide]	10	–
CN(C(=O)c1cc2ccnc(Cl)c2[nH]1)[C@@H]1COCc2[nH]c(=O)c3cc(F)c(F)cc3c21 [Compound 371, (S)-7-Chloro-N-(8,9-difluoro-6-oxo-1,4,5,6-tetrahydro-2H-pyrano[3,4-c]isoquinolin-1-yl)-N-methyl-1H-pyrrolo[2,3-c]pyridine-2-carboxamide]	140	–
CN(C(=O)c1ccc2c(c1)c(C(F)F)nn2C)[C@@H]1COCc2[nH]c(=O)c3cc(F)c(F)cc3c21 [Compound 436, (S)-N-(8,9-Difluoro-6-oxo-1,4,5,6-tetrahydro-2H-pyrano[3,4-c]isoquinolin-1-yl)-3-(difluoromethyl)-N,1-dimethyl-1H-indazole-5-carboxamide]	100	–
CN(C(=O)c1cc2ccc(F)cc2[nH]1)C1CNCc2[nH]c(=O)c3cc(F)c(F)cc3c21 (single isomer, unassigned) [Compound 107, N-(8,9-Difluoro-6-oxo-1,2,3,4,5,6-hexahydrobenzo[c][1,7]naphthyridin-1-yl)-6-fluoro-N-methyl-1H-indole-2-carboxamide]	–	20
COc1cccc2[nH]c(C(=O)N(C)[C@@H]3COCc4[nH]c(=O)c5cc(F)c(F)cc5c43)cc12 [Compound 329, (S)-N-(8,9-Difluoro-6-oxo-1,4,5,6-tetrahydro-2H-pyrano[3,4-c]isoquinolin-1-yl)-4-methoxy-N-methyl-1H-indole-2-carboxamide]	260	–
CN(C(=O)c1ccc(Br)cc1)[C@@H]1COCc2[nH]c(=O)c3cc(F)c(F)cc3c21 [Compound 131, (S)-4-Bromo-N-(8,9-difluoro-6-oxo-1,4,5,6-tetrahydro-2H-pyrano[3,4-c]isoquinolin-1-yl)-N-methylbenzamide]	10	–
Cc1cccc2[nH]c(C(=O)N(C)C3CNCc4[nH]c(=O)c5cc(F)c(F)cc5c43)cc12 (single isomer, unassigned) [Compound 456, N-(8,9-difluoro-6-oxo-1,2,3,4,5,6-hexahydrobenzo[c][1,7]naphthyridin-1-yl)-N,4-dimethyl-1H-indole-2-carboxamide]	–	2200
CN(C(=O)c1cc2cc(F)ccc2[nH]1)C1COCc2[nH]c(=O)c3cc(F)ccc3c21 (single isomer, unassigned) [Compound 30, 5-Fluoro-N-(8-fluoro-6-oxo-1,4,5,6-tetrahydro-2H-pyrano[3,4-c]isoquinolin-1-yl)-N-methyl-1H-indole-2-carboxamide]	–	10
CNS(=O)(=O)c1cccc(C(=O)N(C)[C@@H]2COCc3[nH]c(=O)c4cc(F)c(F)cc4c32)c1 [Compound 296, (S)-N-(8,9-Difluoro-6-oxo-1,4,5,6-tetrahydro-2H-pyrano[3,4-c]isoquinolin-1-yl)-N-methyl-3-(N-methylsulfamoyl)benzamide]	890	–
